Test results as given in PubChem BioAssay (NCI).
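The compound was tested at five concentrations on cells cultured in 96-well plates, with a 48-hour exposure period. GI50 marks 50% less growth. Definition used: TGI = concentration required for complete inhibition of growth.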

Tests used:
Experiment in all cases: growth of human tumour cells (NCI), 48 h
KM12 colon = system: KM12 colon
OVCAR-3 ovarian = system: OVCAR-3 ovarian
UACC-62 melanoma = system: UACC-62 melanoma
HL-60(TB) leukemia = system: HL-60(TB) leukemia
NCI-H460 lung = system: NCI-H460 lung
MALME-3M melanoma = system: MALME-3M melanoma
LOX IMVI melanoma = system: LOX IMVI melanoma
M14 melanoma = system: M14 melanoma
BT-549 breast = system: BT-549 breast

Row | Structure (SMILES) | TGI (KM12 colon) | TGI (OVCAR-3 ovarian) | TGI (UACC-62 melanoma) | TGI (HL-60(TB) leukemia) | TGI (NCI-H460 lung) | TGI (MALME-3M melanoma) | TGI (LOX IMVI melanoma) | TGI (M14 melanoma) | TGI (BT-549 breast) | GI50 (KM12 colon) | GI50 (OVCAR-3 ovarian) | GI50 (UACC-62 melanoma) | GI50 (HL-60(TB) leukemia) | GI50 (MALME-3M melanoma) | GI50 (M14 melanoma) | GI50 (NCI-H460 lung) | GI50 (LOX IMVI melanoma) | GI50 (BT-549 breast)
1 | C[N+](C)([O-])CCCNc1c2ccccc2nc2cccc([N+](=O)[O-])c12 | 4.36 µM | 5.65 µM | 0.491 µM | 4.22 µM | 0.707 µM | 0.419 µM | 6.59 µM | 0.772 µM | 2.91 µM | – | – | – | – | – | – | – | – | –
2 | COc1cc(N=Nc2ccccc2)cc(/C=N\[N-]C(N)=S)c1[O-].COc1cc(N=Nc2ccccc2)cc(/C=N\[N-]C(N)=S)c1[O-].[Fe+4] | > 100 µM | > 100 µM | > 100 µM | > 100 µM | – | > 100 µM | – | > 100 µM | – | 23 µM | > 100 µM | 0.378 µM | 12.6 µM | 59.6 µM | > 100 µM | – | – | –
3 | N#CCCN(CCC#N)c1ccc(/C=C2\N=C(COc3ccc(Cl)cc3Cl)OC2=O)cc1 | > 100 µM | > 100 µM | > 100 µM | > 100 µM | > 100 µM | > 100 µM | > 100 µM | > 100 µM | – | – | – | – | – | – | – | – | – | –
4 | Oc1ccc2occ3c2c1CCC3 | – | > 100 µM | > 100 µM | > 100 µM | > 100 µM | – | > 100 µM | > 100 µM | – | – | – | – | – | – | – | – | – | –
5 | COc1cc2c(cc1OCCCOC1=C=C=C(c3ccc4c(c3)c3cc(-c5ccc(OCCCOc6cc7c(cc6OC)C(=O)N6CCC[C@H]6C=N7)cc5)ccc3n4S(=O)(=O)c3ccc(C)cc3)C=C1)N=C[C@@H]1CCCN1C2=O | 4.3 µM | 2.23 µM | 8.76 µM | > 11.4 µM | 7.99 µM | 10.2 µM | 7.51 µM | 6.93 µM | 4.59 µM | 1.46 µM | 0.959 µM | 1.89 µM | 0.826 µM | 3.26 µM | 1.58 µM | 1.38 µM | 1.49 µM | 1.16 µM
6 | O=C(CC1(O)C(=O)Nc2ccc(Br)cc21)c1ccc(Cl)cc1 (stereo unspecified) | > 100 µM | > 100 µM | > 100 µM | – | > 100 µM | > 100 µM | 38.2 µM | > 100 µM | – | – | – | – | – | – | – | – | – | –
7 | CC1CCC2(NC1)OC1CC3[C@@H]4CC=C5C=CCC[C@]5(C)C4CC[C@]3(C)C1C2C (stereo partly specified) | 44 µM | 80.5 µM | 42.5 µM | 29.7 µM | 34.1 µM | 35.3 µM | 33.6 µM | 50.9 µM | – | – | – | – | – | – | – | – | – | –
8 | CN(C)c1ccc(/C=C/C(=O)C(C)(C)C)cc1Br | 56.1 µM | > 100 µM | 34.2 µM | – | > 100 µM | > 100 µM | – | 43.2 µM | – | – | – | – | – | – | – | – | – | –
9 | Cc1cc2c(cc1C)[n+](=O)c(C(=O)/C=C/c1ccc(Cl)cc1)c(C)n2[O-] | > 100 µM | > 100 µM | 44.3 µM | > 100 µM | 62.7 µM | > 100 µM | 50.4 µM | 54.1 µM | – | – | – | – | – | – | – | – | – | –
10 | NC1CCCCC1N.O=C([O-])P(=O)([O-])[O-].[Na+].[Pt+4] (stereo unspecified) | > 100 µM | > 100 µM | > 100 µM | > 100 µM | > 100 µM | > 100 µM | > 100 µM | > 100 µM | – | > 100 µM | > 100 µM | > 100 µM | 75.9 µM | 84.3 µM | > 100 µM | 55.5 µM | > 100 µM | –
11 | O=C1CCC2CCc3cccc4oc1c2c34 (stereo unspecified) | – | > 100 µM | > 100 µM | > 100 µM | > 100 µM | – | > 100 µM | > 100 µM | – | – | – | – | – | – | – | – | – | –
12 | CCNc1c(C(=O)N(CC)CC)c(=O)[nH]c2ncccc12 | > 100 µM | > 100 µM | > 100 µM | > 100 µM | > 100 µM | > 100 µM | > 100 µM | > 100 µM | – | – | – | – | – | – | – | – | – | –
13 | O=C(O)CNS(=O)(=O)c1ccc(NC(=O)c2ccc(F)cc2)cc1 | > 100 µM | > 100 µM | > 100 µM | > 100 µM | > 100 µM | > 100 µM | > 100 µM | > 100 µM | – | – | – | – | – | – | – | – | – | –
14 | O=C1O[C@H](C(Cl)(Cl)Cl)N2CCCC12 (stereo partly specified) | > 100 µM | > 100 µM | > 100 µM | > 100 µM | > 100 µM | > 100 µM | > 100 µM | > 100 µM | – | – | – | – | – | – | – | – | – | –
15 | CCOP(=O)(OCC)/C(=C\N1C(=O)CC(=O)NC1=S)C(=O)OC | > 100 µM | > 100 µM | > 100 µM | > 100 µM | > 100 µM | – | > 100 µM | > 100 µM | > 100 µM | – | – | – | – | – | – | – | – | –
16 | CS(=O)(=O)N(CCC#N)c1ccc(/C=N/NC(=O)CC(=O)Nc2cccc(Cl)c2)cc1 | > 100 µM | > 100 µM | > 100 µM | – | > 100 µM | > 100 µM | > 100 µM | > 100 µM | – | – | – | – | – | – | – | – | – | –
17 | COc1cccc2c1C1(O)C2CCCC12OCCCO2 (stereo unspecified) | > 100 µM | > 100 µM | > 100 µM | > 100 µM | > 100 µM | > 100 µM | > 100 µM | > 100 µM | – | – | – | – | – | – | – | – | – | –
